These results are taken from paper PMC3580115 (Journal of natural products, 2012).

Usually IC50 stands for the point on the concentration scale where inhibition reaches its midpoint. Read a low IC50 as greater potency.

Data set [1] is described as follows: MTT cytotoxicity assay, panel statement over the five cancer cell lines. It counts as cell-based, human. Particulars: human. For orientation: Tetrazolium dyes change colour on reduction, which living cells bring about.
The subject of data set [2] is five human cancer cell lines. The data set is described as above. The conditions noted are these: for selectivity index compared to the Beas-2B cell line: cancer cell lines versus Beas-2B. The format is cell-based.
The conditions of data set [3]: from bulbs of Z. candida; cited from earlier work.
Setting [4] is: comparison in words, Table S1 not available.

≈ marks a conversion by molar mass, not a printed value. Like-named read-outs stand apart in the source and are kept apart here.

On to `Cn1c(=O)c2cc3c(cc2c2ccccc21)OCO3` [Compound 11, N-methylcrinasiadine], for which the half-inhibitory concentration (IC50) at 48 h in data set [1] was greater than 10 µM.

For the molecule `CO[C@@H]1C=C[C@@]23c4cc5c(cc4C(=O)O[C@H]2CN(C)[C@H]3C1)OCO5` [Compound 3, 3-epimacronine], in data set [1], the half-inhibitory concentration (IC50) at 48 h was greater than 10 µM.

`CO[C@@H]1C=C[C@@]23c4cc5c(cc4CN(C[C@@H]2O)[C@H]3C1)OCO5` [Compound 2, haemanthamin]: the IC50 at 48 h in data set [1] fell in the range of 0.81 to 13 µM. Further, in data set [2], the “selectivity index compared to the Beas-2B cell line” value (from here on “selectivity index”) is no more than 10. For the same molecule, the “cytotoxicity compared with positive control cis-platin” value in data set [2] (setting [4]) is “more potent cytotoxicity than one of the positive controls (cis-platin)”.

Take `O=C1N[C@H]2[C@H](O)[C@H](O)[C@@H](O)C[C@@H]2c2cc3c(c(O)c21)OCO3` (relative stereo) [trans-dihydronarciclasine]: the “IC50 as cytostatic agent” value in data set [3] is 3.2 ng/mL (≈ 0.0103 µM).

`CCOC(=O)CCn1c(=O)c2cc3c(cc2c2ccccc21)OCO3` [Compound 7, N-ethoxycarbonylethylcrinasiadine] registered an IC50 at 48 h in data set [1] greater than 10 µM.

In data set [1], `CN1Cc2cc3c(cc2-c2ccccc21)OCO3` [Compound 13, 5,6-dihydrobicolorine] yielded an IC50 at 48 h greater than 10 µM.

The molecule `C/C=C/C=C/C(=O)N1C[C@H](C)NC[C@H]1C` [Compound 15, nigragillin] came in with an IC50 at 48 h in data set [1] greater than 10 µM.

On to `c1ccc2c(c1)ncc1cc3c(cc12)OCO3` [Compound 12, trisphaeridine], for which the IC50 at 48 h in data set [1] is greater than 10 µM.

Turning to `COc1cc2c(c(OC)c1OC)[C@@H](OC)O[C@@H]1CC=C3CCN(C)[C@H]3[C@H]21` [Compound 6, O-methylnerinine], in data set [1], the half-maximal inhibitory concentration (IC50) at 48 h is greater than 10 µM.

Consider `O=c1c2cc3c(cc2c2ccccc2n1CCc1ccccc1)OCO3` [Compound 9, N-phenethylcrinasiadine], for which, in data set [1], the IC50 at 48 h was in the range of 0.81 to 13 µM. Moreover, in data set [2], the “cytotoxicity compared with positive control cis-platin” value is recorded as “more potent cytotoxicity than one of the positive controls (cis-platin)” and the “selectivity index” value is listed as no more than 10.

Consider `CCOC(=O)CCCn1c(=O)c2cc3c(cc2c2ccccc21)OCO3` [Compound 8, N-ethoxycarbonylpropylcrinasiadine], for which, in data set [1], the IC50 at 48 h was greater than 10 µM.

As for `CO[C@H]1C=C[C@@]23c4cc5c(cc4CN(C)[C@@H]2C(=O)N(C)[C@H]3C1)OCO5` [Compound 5, N-methyl-5,6-dihydroplicane], the IC50 at 48 h in data set [1] was greater than 10 µM.

With `O[C@H]1[C@H]2c3cc4c(cc3CN3CCC(=C[C@@H]1O)[C@H]23)OCO4` [Compound 14, lycorine], in data set [1], the IC50 at 48 h lay within 0.81 to 13 µM. Also, the “selectivity index” value in data set [2] is recorded as no more than 10. Besides, in data set [2] (setting [4]), the “cytotoxicity compared with positive control cis-platin” value is “more potent cytotoxicity than one of the positive controls (cis-platin)”.

For the molecule `CO[C@@H]1C=C[C@@]23c4cc5c(cc4C(O)[N+](C)(C[C@@H]2O)[C@H]3C1)OCO5.[Cl-]` (stereo partly drawn) [Compound 1, N-methylhaemanthidine chloride], the half-inhibitory concentration (IC50) at 48 h in data set [1] was in the range of 0.81 to 13 µM. In addition, in data set [2], the “selectivity index” value is no more than 10. The “cytotoxicity compared with positive control cis-platin” value in data set [2] (setting [4]) is recorded as “more potent cytotoxicity than one of the positive controls (cis-platin)”.

Consider `CO[C@@H]1C=C[C@@]23c4cc5c(cc4CO[C@]2(O)CN(C)[C@H]3C1)OCO5` [Compound 4, (+)-tazettine], for which, in data set [1], the half-maximal inhibitory concentration (IC50) at 48 h is greater than 10 µM.

As to `CC(C)CCn1c(=O)c2cc3c(cc2c2ccccc21)OCO3` [Compound 10, N-isopentylcrinasiadine], in data set [1], the half-inhibitory concentration (IC50) at 48 h was greater than 10 µM.
